Data taken from patent US8987286B2, “Substituted pyrimido[1,2-b]indazoles and their use as modulators of the Pi3K/Akt pathway” (Bayer Intellectual Property GmbH, priority 2010, dated 2015).
Structures can show the parent of a compound that is named as a salt.

biological target: Akt1 (Homo sapiens (Human), UniProt P31749); experiment: Akt1 kinase assay (Akt1 TR-FRET assay); assay type: biochemical; conditions: His-tagged human recombinant full-length Akt1, 10 μM ATP, 1 μM peptide substrate
Source text: Biological Assay 1.0: Akt1 Kinase Assay
Akt1 inhibitory activity of compounds of the present invention was quantified employing the Akt1 TR-FRET assay as described in the following paragraphs.
His-tagged human recombinant kinase full-length Akt1 expressed in insect cells was purchased form Invitrogen (part number PV 3599). As substrate for the kinase reaction the biotinylated peptide biotin-Ahx-KKLNRTLSFAEPG (C-terminus in amide form) was used which can be purchased e.g. from the company Biosynthan GmbH (Berlin-Buch, Germany).
For the assay 50 nl of a 100 fold concentrated solution of the test compound in DMSO was pipetted into a black low volume 384 well microtiter plate (Greiner Bio-One, Frickenhausen, Germany), 2 μl of a solution of Akt1 in assay buffer [50 mM TRIS/HCl pH 7.5, 5 mM MgCl2, 1 mM dithiothreitol, 0.02% (v/v) Triton X-100 (Sigma)] were added and the mixture was incubated for 15 min at 22° C. to allow pre-binding of the test compounds to the enzyme before the start of the kinase reaction. Then the kinase reaction was started by the addition of 3 μl of a solution of adenosine-tri-phosphate (ATP, 16.7 μM=>final conc. in the 5 μl assay volume is 10 μM) and substrate (1.67 μM=>final conc. in the 5 μl assay volume is 1 μM) in assay buffer and the resulting mixture was incubated for a reaction time of 60 min at 22° C. The concentration of Akt1 in the assay was adjusted depending of the activity of the enzyme lot and was chosen appropriate to have the assay in the linear range, typical enzyme concentrations were in the range of about 0.05 ng/μl (final conc. in the 5 μl assay volume).
The reaction was stopped by the addition of 5 μl of a solution of HTRF detection reagents (200 nM streptavidine-XL665 [Cisbio] and 1.5 nM anti-phosho-Serine antibody [Millipore, cat. #35-001] and 0.75 nM LANCE Eu-W 1024 labeled anti-mouse IgG antibody [Perkin Elmer]) in an aqueous EDTA-solution (100 mM EDTA, 0.1% (w/v) bovine serum albumin in 50 mM HEPES/NaOH pH 7.5).
The resulting mixture was incubated 1 h at 22° C. to allow the binding of the biotinylated phosphorylated peptide to the streptavidine-XL665 and the antibodies. Subsequently the amount of phosphorylated substrate was evaluated by measurement of the resonance energy transfer from the anti-mouse-IgG-Eu-Chelate to the streptavidine-XL665. Therefore, the fluorescence emissions at 620 nm and 665 nm after excitation at 350 nm was measured in a HTRF reader, e.g. a Rubystar (BMG Labtechnologies, Offenburg, Germany) or a Viewlux (Perkin-Elmer). The ratio of the emissions at 665 nm and at […] was taken as the measure for the amount of phosphorylated substrate. The data were normalised (enzyme reaction without inhibitor=0% inhibition, all other assay components but no enzyme=100% inhibition).

Sequence of Akt1 (P31749 whole entry): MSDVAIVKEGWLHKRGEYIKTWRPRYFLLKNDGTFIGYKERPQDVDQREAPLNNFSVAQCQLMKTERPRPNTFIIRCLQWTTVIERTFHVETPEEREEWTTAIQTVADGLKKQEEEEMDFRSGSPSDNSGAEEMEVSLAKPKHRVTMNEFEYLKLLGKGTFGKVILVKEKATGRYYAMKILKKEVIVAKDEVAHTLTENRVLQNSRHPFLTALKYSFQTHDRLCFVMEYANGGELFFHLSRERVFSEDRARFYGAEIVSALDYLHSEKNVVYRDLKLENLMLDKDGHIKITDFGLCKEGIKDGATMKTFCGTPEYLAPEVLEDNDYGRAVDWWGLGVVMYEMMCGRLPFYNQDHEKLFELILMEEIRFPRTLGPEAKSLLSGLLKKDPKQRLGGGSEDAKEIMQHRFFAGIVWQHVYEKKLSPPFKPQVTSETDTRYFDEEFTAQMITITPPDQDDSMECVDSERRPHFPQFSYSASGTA

Row | IC50 | SMILES
1 | 0.528 µM | NC1(c2ccc(-c3nc4c5cc(F)ccc5nn4c(NC4CC4)c3-c3ccccc3)cc2)CCC1 [Example 2, 2-[4-(1-Aminocyclobutyl)phenyl]-N-cyclopropyl-9-fluoro-3-phenylpyrimido[1,2-b]indazol-4-amine]
2 | 2.63 µM | CNc1c(-c2ccccc2)c(-c2ccc(C3(N)CCC3)cc2)nc2c3cc(F)ccc3nn12 [Example 3, 2-[4-(1-Aminocyclobutyl)phenyl]-9-fluoro-N-methyl-3-phenylpyrimido[1,2-b]indazol-4-amine]
3 | 0.14 µM | N#Cc1cccc(-c2ccc3c(c2)nn2cc(-c4ccccc4)c(-c4ccc(C5(N)CCC5)cc4)nc32)c1 [Example 4, 3-{2-[4-(1-Aminocyclobutyl)phenyl]-3-phenylpyrimido[1,2-b]indazol-8-yl}-benzonitrile]
4 | 0.059 µM | CS(=O)(=O)c1ccc(-c2ccc3c(c2)nn2cc(-c4ccccc4)c(-c4ccc(C5(N)CCC5)cc4)nc32)cc1 [Example 4.1, 1-{4-[8-(4-Mesylphenyl)-3-phenylpyrimido[1,2-b]indazol-2-yl]-phenyl}cyclobutylamine]
5 | 0.229 µM | NC1(c2ccc(-c3nc4c5ccc(-c6ccc(F)cc6)cc5nn4cc3-c3ccccc3)cc2)CCC1 [Example 4.2, 1-{4-[8-(4-Fluorophenyl)-3-phenylpyrimido[1,2-b]indazol-2-yl]-phenyl}cyclobutylamine]
6 | 0.043 µM | NC1(c2ccc(-c3nc4c5ccc(-c6ccc(F)c(CO)c6)cc5nn4cc3-c3ccccc3)cc2)CCC1 [Example 4.4, 5-{2-[4-(1-Aminocyclobutyl)phenyl]-3-phenylpyrimido[1,2-b]indazol-8-yl}-2-fluorobenzyl alcohol]
7 | 0.035 µM | NC1(c2ccc(-c3nc4c5ccc(-c6ccc(F)c(O)c6)cc5nn4cc3-c3ccccc3)cc2)CCC1 [Example 4.5, 5-{2-[4-(1-Aminocyclobutyl)phenyl]-3-phenylpyrimido[1,2-b]indazol-8-yl}-2-fluorophenol formiate]
8 | 0.458 µM | COc1cc(-c2ccc3c(c2)nn2cc(-c4ccccc4)c(-c4ccc(C5(N)CCC5)cc4)nc32)ccc1F [Example 4.6, 1-{4-[8-(4-Fluoro-3-methoxyphenyl)-3-phenylpyrimido[1,2-b]indazol-2-yl]phenyl}cyclobutylamine]
9 | 0.025 µM | CS(=O)(=O)c1cccc(-c2ccc3c(c2)nn2cc(-c4ccccc4)c(-c4ccc(C5(N)CCC5)cc4)nc32)c1 [Example 4.7, 1-{4-[8-(3-Mesylphenyl)-3-phenylpyrimido[1,2-b]indazol-2-yl]phenyl}cyclobutylamine formiate]
10 | 0.111 µM | COC(=O)c1ccc2c(c1)nn1cc(-c3ccccc3)c(-c3ccc(C4(N)CCC4)cc3)nc21 [Example 4.8, 2-[4-(1-Aminocyclobutyl)phenyl]-3-phenylpyrimido[1,2-b]indazole-8-carboxylic acid methyl ester]
11 | 0.016 µM | NC(=O)c1cccc(-c2ccc3c(c2)nn2cc(-c4ccccc4)c(-c4ccc(C5(N)CCC5)cc4)nc32)c1 [Example 4.9, 3-{2-[4-(1-Aminocyclobutyl)phenyl]-3-phenylpyrimido[1,2-b]indazol-8-yl}benzamide]
12 | 0.021 µM | NC(=O)c1ccc(-c2ccc3c(c2)nn2cc(-c4ccccc4)c(-c4ccc(C5(N)CCC5)cc4)nc32)cc1 [Example 4.10, 4-{2-[4-(1-Aminocyclobutyl)phenyl]-3-phenylpyrimido[1,2-b]indazol-8-yl}benzamide]
13 | 0.017 µM | NC1(c2ccc(-c3nc4c5ccc(-c6cn[nH]c6)cc5nn4cc3-c3ccccc3)cc2)CCC1 [Example 4.11, 1-{4-[3-Phenyl-8-(1H-pyrazol-4-yl)pyrimido[1,2-b]indazol-2-yl]-phenyl}cyclobutylamine]
14 | 0.014 µM | NC1(c2ccc(-c3nc4c5ccc(-c6ccc(O)nc6)cc5nn4cc3-c3ccccc3)cc2)CCC1 [Example 4.12, 5-{2-[4-(1-Aminocyclobutyl)phenyl]3-phenylpyrimido[1,2-b]indazol-8-yl}pyridin-2-ol]
15 | 0.023 µM | COC(=O)c1ccc(-c2ccc3c(c2)nn2cc(-c4ccccc4)c(-c4ccc(C5(N)CCC5)cc4)nc32)cn1 [Example 4.13, 5-{2-[4-(1-Aminocyclobutyl)phenyl]-3-phenylpyrimido[1,2-b]indazol-8-yl}pyridine-2-carboxylic acid methyl ester]
16 | 0.12 µM | Cc1ccc(-c2ccc3nn4cc(-c5ccccc5)c(-c5ccc(C6(N)CCC6)cc5)nc4c3c2)cc1 [Example 5.1, 1-[4-(3-Phenyl-9-p-tolylpyrimido[1,2-b]indazol-2-yl)phenyl]cyclobutylamine]
17 | 0.13 µM | COC(=O)c1cccc(-c2ccc3nn4cc(-c5ccccc5)c(-c5ccc(C6(N)CCC6)cc5)nc4c3c2)c1 [Example 5.2, 3-{2-[4-(1-Aminocyclobutyl)phenyl]-3-phenylpyrimido[1,2-b]indazol-9-yl}benzoic acid methyl ester]
18 | 0.041 µM | NC1(c2ccc(-c3nc4c5cc(Br)ccc5nn4cc3-c3ccccc3)cc2)CCC1 [Example 6.1, 1-[4-(9-Bromo-3-phenylpyrimido[1,2-b]indazol-2-yl)phenyl]cyclobutylamine]
19 | 0.097 µM | N#Cc1ccc(-c2ccc3nn4cc(-c5ccccc5)c(-c5ccc(C6(N)CCC6)cc5)nc4c3c2)cc1 [Example 6.2, 4-{2-[4-(1-Aminocyclobutyl)phenyl]-3-phenylpyrimido[1,2-b]indazol-9-yl}benzonitrile formiate]
20 | 0.016 µM | NC1(c2ccc(-c3nc4c5cc(-c6cccc(CO)c6)ccc5nn4cc3-c3ccccc3)cc2)CCC1 [Example 6.3, 3-{2-[4-(1-Aminocyclobutyl)phenyl]-3-phenylpyrimido[1,2-b]indazol-9-yl}benzyl alcohol formiate]
21 | 0.018 µM | NC1(c2ccc(-c3nc4c5cc(-c6ccc(CO)cc6)ccc5nn4cc3-c3ccccc3)cc2)CCC1 [Example 6.4, 4-{2-[4-(1-Aminocyclobutyl)phenyl]-3-phenylpyrimido[1,2-b]indazol-9-yl}benzyl alcohol formiate]
22 | 0.031 µM | NC1(c2ccc(-c3nc4c5cc(-c6ccc(S(N)(=O)=O)cc6)ccc5nn4cc3-c3ccccc3)cc2)CCC1 [Example 6.5, 4-{2-[4-(1-Aminocyclobutyl)phenyl]-3-phenylpyrimido[1,2-b]indazol-9-yl}benzenesulfonamide formiate]
23 | 0.01 µM | NC1(c2ccc(-c3nc4c5cc(-c6ccc(F)c(CO)c6)ccc5nn4cc3-c3ccccc3)cc2)CCC1 [Example 6.6, 5-{2-[4-(1-Aminocyclobutyl)phenyl]-3-phenylpyrimido[1,2-b]indazol-9-yl}-2-fluorobenzyl alcohol]
24 | 0.019 µM | NC1(c2ccc(-c3nc4c5cc(-c6cn[nH]c6)ccc5nn4cc3-c3ccccc3)cc2)CCC1 [Example 6.7, 1-{4-[3-Phenyl-9-(1H-pyrazol-4-yl)pyrimido[1,2-b]indazol-2-yl]phenyl}-cyclobutylamine]
25 | 0.17 µM | NC1(c2ccc(-c3nc4c5cccc(Br)c5nn4cc3-c3ccccc3)cc2)CCC1 [Example 8.1, 1-[4-(7-Bromo-3-phenylpyrimido[1,2-b]indazol-2-yl)phenyl]cyclobutylamine hydrochloride]
26 | 5.6 µM | NC1(c2ccc(-c3nc4c5cccc(-c6ccc(F)cc6)c5nn4cc3-c3ccccc3)cc2)CCC1 [Example 8.2, 1-{4-[7-(4-Fluorophenyl)-3-phenylpyrimido[1,2-b]indazol-2-yl]-phenyl}cyclobutylamine]
27 | 0.72 µM | NC1(c2ccc(-c3nc4c5cccc(-c6ccc(CO)cc6)c5nn4cc3-c3ccccc3)cc2)CCC1 [Example 8.3, 4-{2-[4-(1-Aminocyclobutyl)phenyl]-3-phenylpyrimido[1,2-b]indazol-7-yl}benzyl alcohol formiate]
28 | 17 µM | CS(=O)(=O)c1cccc(-c2cccc3c2nn2cc(-c4ccccc4)c(-c4ccc(C5(N)CCC5)cc4)nc32)c1 [Example 8.4, 1-{4-[7-(3-Mesylphenyl)-3-phenylpyrimido[1,2-b]indazol-2-yl]-phenyl}cyclobutylamine]

Row | SMILES | IC50
29 | NC1(c2ccc(-c3nc4c5ccc(Br)cc5nn4cc3-c3ccccc3)cc2)CCC1 [Example 4.3, 1-[4-(8-Bromo-3-phenylpyrimido[1,2-b]indazol-2-yl)phenyl]cyclobutylamine hydrochloride] | 0.087 µM
